The experiment has as its target T1, human Cereblon WT GST-tagged protein (Homo sapiens, UniProt Q96SW2).
T1 construct: purchased CISBIO 64BDCRBNPEH
Put plainly: CRBN binding, HTRF CEREBLON BINDING kit. The note with it: CRBN binding, HTRF CEREBLON BINDING kit. Here is the method:
The CEREBLON BINDING kits (specification: 10,000 tests; product number: Catalog #64BDCRBNPEH; CISBIO company) was used to determine the CRBN binding ability of the compounds to be tested through a HTRF method (homogeneous time-resolved fluorescence). The specific methods are as follows: • 1. […] Then, 2.5 μL of human Cereblon WT GST-tagged protein solution was added to each well. Finally, 5 μL of the thoroughly mixed Thalidomide-Re reagent and GST Eu antibody working solution were added to each of the aforementioned wells. […] The blank control wells were sequentially added with 2.5 μL of diluent #9 (1×) solution, 2.5 μL of binding buffer, and 5 μL of thoroughly mixed Thalidomide-Re reagent and GST Eu antibody working solution. • 4. After sealing and incubating the solutions in the aforementioned wells at room temperature for 3 hours, the absorbance values at emission wavelengths of 620 nm and 665 nm were detected by the HTRF method using a Spark microplate reader (V3.1 SP1).
The corresponding CRBN binding inhibition rate was calculated using the following method:
[formula] [formula] [formula] • Note: OD 665 nmcompound is the absorbance value of each well of the compounds to be tested of the present disclosure at an emission wavelength of 665 nm. • OD 620 nmcompound is the absorbance value of each well of the compounds to be tested of the present disclosure at an emission wavelength of 620 nm. • OD 665 nmcontrol is the absorbance value of the blank control well at an emission wavelength of 665 nm. • OD 620 nmcontrol is the absorbance value of the blank control well at an emission wavelength of 620 nm. • OD 665 nmStd0 is the absorbance value of the solvent control well at an emission wavelength of 665 nm. • OD 620 nmStd0 is the absorbance value of the solvent control well at an emission wavelength of 620 nm.
For orientation: Time-resolved FRET reads energy transfer from a long-lived donor to a nearby acceptor.
T1 sequence (Q96SW2 whole entry): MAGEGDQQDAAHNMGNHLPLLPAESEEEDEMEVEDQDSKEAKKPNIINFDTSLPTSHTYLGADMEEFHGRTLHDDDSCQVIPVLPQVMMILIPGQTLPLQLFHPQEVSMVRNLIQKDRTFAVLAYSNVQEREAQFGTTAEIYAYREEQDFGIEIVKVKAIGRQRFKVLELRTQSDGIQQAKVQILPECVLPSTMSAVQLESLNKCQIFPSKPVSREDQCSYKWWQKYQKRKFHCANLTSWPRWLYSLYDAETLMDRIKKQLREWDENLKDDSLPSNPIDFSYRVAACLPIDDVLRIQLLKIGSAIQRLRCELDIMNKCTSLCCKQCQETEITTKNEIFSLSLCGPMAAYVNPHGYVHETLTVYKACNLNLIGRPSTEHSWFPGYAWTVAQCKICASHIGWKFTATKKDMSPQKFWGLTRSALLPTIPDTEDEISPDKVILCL
For the compound `CN1CCN([C@@H]2CCCN(c3cnc(C(N)=O)c(Nc4ccc(C5CCN(Cc6ccc(N7CCC(=O)NC7=O)cc6)CC5)cc4)n3)C2)C1=O` [GT-04802, (R)-3-((4-(1-(4-(2,4-dioxotetrahydropyrimidin-1(2H)-yl)benzyl)piperidin-4-yl)phenyl)amino)-5-(3-(3-methyl-2-oxoimidazolidin-1-yl)piperidin-1-yl)pyrazine-2-carboxamide], the IC50 is 500 to 1000 nM.
In the case of `CN1CCN([C@@H]2CCCN(c3cnc(C(N)=O)c(Nc4ccc(C5CCN(Cc6ccc(N7CCC(=O)NC7=O)cc6F)CC5)cc4)n3)C2)C1=O` [GT-04803, (R)-3-((4-(1-(4-(2,4-dioxotetrahydropyrimidin-1(2H)-yl)-2-fluorobenzyl)piperidin-4-yl)phenyl)amino)-5-(3-(3-methyl-2-oxoimidazolidin-1-yl)piperidin-1-yl)pyrazine-2-carboxamide] it was 500 to 1000 nM; in that of `CN1CCN([C@@H]2CCCN(c3cnc(C(N)=O)c(Nc4ccc(C5CCN(Cc6cccc(NC7CCC(=O)NC7=O)c6)CC5)cc4)n3)C2)C1=O` (stereo partly drawn) [GT-04804, 3-((4-(1-(3-((2,6-dioxopiperidin-3-yl)amino)benzyl)piperidin-4-yl)phenyl)amino)-5-((R)-3-(3-methyl-2-oxoimidazolidin-1-yl)piperidin-1-yl)pyrazine-2-carboxamide], 1000 to 1900 nM; in that of `COc1ccc2cn(C3CCN(Cc4ccc(C5CCC(=O)NC5=O)cc4)CC3)nc2c1NC(=O)c1cccc(C(F)(F)F)c1` (stereo not drawn) [GT-04813, N-(2-(1-(4-(2,6-dioxopiperidin-3-yl)benzyl)piperidin-4-yl)-6-methoxy-2H-indazol-7-yl)-3-(trifluoromethyl)benzamide], 1000 to 1900 nM.
In the case of `COc1ccc2cn(C3CCN(Cc4ccc(C5CCC(=O)NC5=O)c(F)c4)CC3)nc2c1NC(=O)c1cccc(C(F)(F)F)c1` (stereo not drawn) [GT-04814, N-(2-(1-(4-(2,6-dioxopiperidin-3-yl)-3-fluorobenzyl)piperidin-4-yl)-6-methoxy-2H-indazol-7-yl)-3-(trifluoromethyl)benzamide] it was 500 to 1000 nM; in that of `Cc1ccc(-c2c(C)noc2C)cc1N(CC1CCN(Cc2cccc(N3CCC(=O)NC3=O)c2)CC1)c1ccc(C2(C#N)CC2)cc1` [GT-04842, 1-(4-((5-(3,5-dimethylisoxazol-4-yl)-2-methylphenyl)((1-(3-(2,4-dioxotetrahydropyrimidin-1(2H)-yl)benzyl)piperidin-4-yl)methyl)amino)phenyl)cyclopropane-1-carbonitrile], 1000 to 1900 nM.
In the case of `Cc1ccc(-c2c(C)noc2C)cc1N(CC1CCN(Cc2ccc(N3CCC(=O)NC3=O)c(F)c2)CC1)c1ccc(C2(C#N)CC2)cc1` [GT-04843, 1-(4-((5-(3,5-dimethylisoxazol-4-yl)-2-methylphenyl)((1-(4-(2,4-dioxotetrahydropyrimidin-1(2H)-yl)-3-fluorobenzyl)piperidin-4-yl)methyl)amino)phenyl)cyclopropane-1-carbonitrile] it was 1000 to 1900 nM.
`Cc1ccc(-c2c(C)noc2C)cc1N(CC1CCN(Cc2ccc(N3CCC(=O)NC3=O)cc2)CC1)c1ccc(C2(C#N)CC2)cc1` [GT-04844, 1-(4-((5-(3,5-dimethylisoxazol-4-yl)-2-methylphenyl)((1-(4-(2,4-dioxotetrahydropyrimidin-1(2H)-yl)benzyl)piperidin-4-yl)methyl)amino)phenyl)cyclopropane-1-carbonitrile] displayed an IC50 of 500 to 1000 nM.
In turn, `O=C1CCN(c2ccc(CN3CCC(n4cc(NC(=O)c5coc(-c6ccnc(NCC7CC7)c6)n5)c(C(F)F)n4)CC3)nc2)C(=O)N1` [GT-04958, 2-(2-((cyclopropylmethyl)amino)pyridin-4-yl)-N-(3-(difluoromethyl)-1-(1-((5-(2,4-dioxotetrahydropyrimidin-1(2H)-yl)pyridin-2-yl)methyl)piperidin-4-yl)-1H-pyrazol-4-yl)oxazole-4-carboxamide] displayed an IC50 of 500 to 1000 nM.
In the case of `Nc1nnc(-c2ccccc2O)cc1N1CCN(Cc2ccc(N3CCC(=O)NC3=O)cc2)CC1` [GT-04961, 1-(4-((4-(3-amino-6-(2-hydroxyphenyl)pyridazin-4-yl)piperazin-1-yl)methyl)phenyl)dihydropyrimidine-2,4(1H,3H)-dione] it was 500 to 1000 nM; in that of `Nc1nnc(-c2ccccc2O)cc1N1CCN(Cc2cccc(N3CCC(=O)NC3=O)c2)CC1` [GT-04962, 1-(3-((4-(3-amino-6-(2-hydroxyphenyl)pyridazin-4-yl)piperazin-1-yl)methyl)phenyl)dihydropyrimidine-2,4(1H,3H)-dione], 1000 to 1900 nM.
Consider `O=C1CCN(c2cccc(CN3CCC(n4cc(NC(=O)c5coc(-c6ccnc(NCC7CC7)c6)n5)c(C(F)F)n4)CC3)c2)C(=O)N1` [GT-04965, 2-(2-((cyclopropylmethyl)amino)pyridin-4-yl)-N-(3-(difluoromethyl)-1-(1-(3-(2,4-dioxotetrahydropyrimidin-1(2H)-yl)benzyl)piperidin-4-yl)-1H-pyrazol-4-yl)oxazole-4-carboxamide], for which the 50% inhibitory concentration (IC50) is 500 to 1000 nM.
On to `Cc1ccc(-c2c(C)noc2C)cc1N(CC1CCN(Cc2ccc(N3CCC(=O)NC3=O)cc2F)CC1)c1ccc(C2(C#N)CC2)cc1` [GT-04973, 1-(4-((5-(3,5-dimethylisoxazol-4-yl)-2-methylphenyl)((1-(4-(2,4-dioxotetrahydropyrimidin-1(2H)-yl)-2-fluorobenzyl)piperidin-4-yl)methyl)amino)phenyl)cyclopropane-1-carbonitrile], for which the 50% inhibitory concentration (IC50) lay within 1000 to 1900 nM.
In the case of `O=C1CCN(c2cccc(CN3CCN(Cc4ccc5c(c4)nc(NC(=O)c4cccc(C(F)(F)F)c4)n5[C@H]4CC[C@@H](CO)CC4)CC3)c2)C(=O)N1` [GT-04977, N-(5-((4-(3-(2,4-dioxotetrahydropyrimidin-1(2H)-yl)benzyl)piperazin-1-yl)methyl)-1-((1s,4s)-4-(hydroxymethyl)cyclohexyl)-1H-benzo[d]imidazol-2-yl)-3-(trifluoromethyl)benzamide] it was 500 to 1000 nM; in that of `O=C1CCC(c2ccc(CN3CCN(Cc4ccc5c(c4)nc(NC(=O)c4cccc(C(F)(F)F)c4)n5[C@H]4CC[C@@H](CO)CC4)CC3)cc2)C(=O)N1` (stereo partly drawn) [GT-04978, N-(5-((4-(4-(2,6-dioxopiperidin-3-yl)benzyl)piperazin-1-yl)methyl)-1-((1s,4s)-4-(hydroxymethyl)cyclohexyl)-1H-benzo[d]imidazol-2-yl)-3-(trifluoromethyl)benzamide], 1000 to 1900 nM; in that of `O=C1CCC(Nc2cccc(CN3CCN(c4ccc5c(c4)nc(NC(=O)c4cccc(C(F)(F)F)c4)n5[C@H]4CC[C@@H](CO)CC4)CC3)c2)C(=O)N1` (stereo partly drawn) [GT-04985, N-(5-(4-(3-((2,6-dioxopiperidin-3-yl)amino)benzyl)piperazin-1-yl)-1-((1s,4s)-4-(hydroxymethyl)cyclohexyl)-1H-benzo[d]imidazol-2-yl)-3-(trifluoromethyl)benzamide], 500 to 1000 nM.
With `Nc1nnc(-c2ccccc2O)cc1N1CCN(Cc2ccc(C3CCC(=O)NC3=O)cc2)CC1` (stereo not drawn) [GT-05015, 3-(4-((4-(3-amino-6-(2-hydroxyphenyl)pyridazin-4-yl)piperazin-1-yl)methyl)phenyl)piperidine-2,6-dione] the figure was < 500 nM; with `Nc1nnc(-c2ccccc2O)cc1N1CCN(Cc2ccc(N3CCC(=O)NC3=O)cn2)CC1` [GT-05016, 1-(6-((4-(3-amino-6-(2-hydroxyphenyl)pyridazin-4-yl)piperazin-1-yl)methyl)pyridin-3-yl)dihydropyrimidine-2,4(1H,3H)-dione], 500 to 1000 nM.
In the case of `O=C1CCC(c2ccc(CN3CCC(N4CCN(c5ccc6c(c5)nc(NC(=O)c5cccc(C(F)(F)F)c5)n6[C@H]5CC[C@@H](CO)CC5)CC4)CC3)cc2)C(=O)N1` (stereo partly drawn) [GT-05020, N-(5-(4-(1-(4-(2,6-dioxopiperidin-3-yl)benzyl)piperidin-4-yl)piperazin-1-yl)-1-((1s,4s)-4-(hydroxymethyl)cyclohexyl)-1H-benzo[d]imidazol-2-yl)-3-(trifluoromethyl)benzamide] it was 1000 to 1900 nM.
`O=C1CCN(c2ccc(CN3CCC(N4CCN(c5ccc6c(c5)nc(NC(=O)c5cccc(C(F)(F)F)c5)n6[C@H]5CC[C@@H](CO)CC5)CC4)CC3)cc2)C(=O)N1` [GT-05021, N-(5-(4-(1-(4-(2,4-dioxotetrahydropyrimidin-1(2H)-yl)benzyl)piperidin-4-yl)piperazin-1-yl)-1-((1s,4s)-4-(hydroxymethyl)cyclohexyl)-1H-benzo[d]imidazol-2-yl)-3-(trifluoromethyl)benzamide] yielded an IC50 of 1000 to 1900 nM.
With `O=C1CCN(c2cccc(CN3CCC(N4CCN(c5ccc6c(c5)nc(NC(=O)c5cccc(C(F)(F)F)c5)n6[C@H]5CC[C@@H](CO)CC5)CC4)CC3)c2)C(=O)N1` [GT-05022, N-(5-(4-(1-(3-(2,4-dioxotetrahydropyrimidin-1(2H)-yl)benzyl)piperidin-4-yl)piperazin-1-yl)-1-((1s,4s)-4-(hydroxymethyl)cyclohexyl)-1H-benzo[d]imidazol-2-yl)-3-(trifluoromethyl)benzamide] the figure was 1000 to 1900 nM.

As a reminder, the IC50 is the concentration at which inhibition is half-maximal.
